Experimental data published in patent US11241441B2, “Formulations of lixivaptan for the treatment of polycystic disease” (PALLADIO BIOSCIENCES, INC., priority 2017, dated 2022).

Legend:
PCK rats = assay: In vivo study of the effects of lixivaptan on PCK rats; set-up: species or system rat; details: for % kidney weight/body weight: both genders
Method: A study was performed that examined the effect of lixivaptan (0.5% or 1% w/w lixivaptan in ground rodent chow) on bodyweight, kidney weight, kidney cAMP, urine output, and serum electrolyte concentration in PCK rats, an orthologous animal model of Autosomal Recessive PKD that develops a phenotype reminiscent of ADPKD.
Experimental animals and study design. PCK rats were divided into control and treatment groups at four weeks of age (n=59, ˜10 animals per treatment group and gender). Lixivaptan was dissolved in DMSO and added to ground rodent chow (Regrind Labdiet 5053) at 0.5% or 1.0% concentration (w/w) by homogenous mixing, whereas control animals received the same diet without lixivaptan. Animals were exposed to control- or lixivaptan-diet for eight weeks and were sacrificed at twelve weeks of age.
Experimental Protocol. […] At the end of the dosing period, the animals were weighed and anesthetized with ketamine 90 mg/kg and xylazine 10 mg/kg, IP. Blood samples were obtained by cardiac puncture for determination of plasma electrolytes, creatinine and plasma urea levels. The right kidney and part of the liver were placed into pre-weighed vials containing 10% formaldehyde in phosphate buffer (pH 7.4). The tissues were embedded in paraffin for histological studies. The left kidneys were immediately frozen in liquid nitrogen for determination of cAMP.
Statistical Analysis. Comparisons between groups were analyzed using one-way or two-way analysis of variance (ANOVA) with least significant difference comparisons of the means or student's t-test as appropriate. Data were expressed as means±SD.

[1] = Clinical observation of ALT elevations, 400 mg BID for 7 days; type: in vivo, human; details: 67 individuals
vasopressin V2 receptor = biological target: T1, vasopressin V2 receptor (Homo sapiens, UniProt P30518); assay: Uosm in clinical studies in healthy subjects and various patient populations; type: in vivo; details: healthy subjects, hyponatremia patients, ESRD patients
T1 construct: Lixivaptan antagonizes the effects of vasopressin that are mediated by the V2 receptor; from tissue; host or cells: living human subjects (in vivo clinical studies); the receptor is the subjects' own and no tissue was isolated
T1 sequence (P30518 whole entry): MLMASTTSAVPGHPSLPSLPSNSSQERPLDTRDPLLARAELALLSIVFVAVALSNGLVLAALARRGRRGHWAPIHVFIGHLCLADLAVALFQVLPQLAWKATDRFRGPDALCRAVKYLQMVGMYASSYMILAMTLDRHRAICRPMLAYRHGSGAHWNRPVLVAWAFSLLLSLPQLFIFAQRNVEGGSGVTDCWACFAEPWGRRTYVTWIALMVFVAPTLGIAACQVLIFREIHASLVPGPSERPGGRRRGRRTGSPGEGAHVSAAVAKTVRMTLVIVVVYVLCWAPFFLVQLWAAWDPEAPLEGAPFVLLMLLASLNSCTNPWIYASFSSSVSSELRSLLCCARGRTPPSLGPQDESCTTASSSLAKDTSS
Method: Lixivaptan in healthy volunteers was tested in a randomized, double-blind, placebo-controlled, ascending multiple-dose, safety and tolerance clinical study in 98 healthy male subjects.
Subjects with Syndrome of Inappropriate Anti-Diuretic Hormone (SIADH) secretion were tested in a randomized, double-blind, placebo-controlled, ascending single-dose, safety and tolerance study.

[2] = PCK rats, 0.5% lixivaptan, compared to control
[3] = PCK rats, 0.5% lixivaptan, compared to control, p=0.08

Cc1ccc(F)cc1C(=O)Nc1ccc(C(=O)N2Cc3cccn3Cc3ccccc32)c(Cl)c1 [Lixivaptan, 5-fluoro-2-methyl-N-[4-(5H-pyrrolo[2,1-C] [1,4]benzodiazepin-10(11H)-ylcarbonyl)-3-chlorophenyl]benzamide]
24 hr urine week 7 (PCK rats; PCK rats F, 0.5% Lixivaptan): 33.5 ± 8.6 mL | 24 hr urine week 10 (PCK rats; PCK rats F, 0.5% Lixivaptan): 47.7 ± 16.8 mL | % Kidney/Body Weight (PCK rats; PCK rats F, 0.5% Lixivaptan): 1.11 ± 0.10 % | % Liver/Body Weight (PCK rats; PCK rats F, 0.5% Lixivaptan): 5.72 ± 0.42% | Kidney Cyst Score (PCK rats; PCK rats F, 0.5% Lixivaptan): 7.1 ± 4.2 % | Kidney Fibrosis Score (PCK rats; PCK rats F, 0.5% Lixivaptan): 2.0 ± 1.1% | Liver Cyst Score (PCK rats; PCK rats F, 0.5% Lixivaptan): 3.7 ± 0.8% | Liver Fibrois Score (PCK rats; PCK rats F, 0.5% Lixivaptan): 2.7 ± 0.3% | Liver Weight (PCK rats; PCK rats F, 0.5% Lixivaptan): 14.5 ± 1.6 g | Plasma Creatinine (PCK rats; PCK rats F, 0.5% Lixivaptan): 0.64 ± 0.08 mg/dL | Plasma Sodium (PCK rats; PCK rats F, 0.5% Lixivaptan): 145 ± 2 mEq/L | Plasma Urea (PCK rats; PCK rats F, 0.5% Lixivaptan): 32.3 ± 3.9 mg/dL | Total Kidney Weight (PCK rats; PCK rats F, 0.5% Lixivaptan): 2.82 ± 0.33 g | 24 hr urine week 7 (PCK rats; PCK rats F, 1.0% Lixivaptan): 39.7 ± 14.2 mL | 24 hr urine week 10 (PCK rats; PCK rats F, 1.0% Lixivaptan): 54.8 ± 19.3 mL | % Kidney/Body Weight (PCK rats; PCK rats F, 1.0% Lixivaptan): 1.75 ± 0.99% | % Liver/Body Weight (PCK rats; PCK rats F, 1.0% Lixivaptan): 7.11 ± 2.61% | Kidney Cyst Score (PCK rats; PCK rats F, 1.0% Lixivaptan): 11.9 ± 3.1% | Kidney Fibrosis Score (PCK rats; PCK rats F, 1.0% Lixivaptan): 2.1 ± 0.8% | Liver Cyst Score (PCK rats; PCK rats F, 1.0% Lixivaptan): 6.2 ± 2.7% | Liver Fibrois Score (PCK rats; PCK rats F, 1.0% Lixivaptan): 4.1 ± 1.4% | Liver Weight (PCK rats; PCK rats F, 1.0% Lixivaptan): 16.8 ± 6.7 g | Plasma Creatinine (PCK rats; PCK rats F, 1.0% Lixivaptan): 0.68 ± 0.06 mg/dL | Plasma Sodium (PCK rats; PCK rats F, 1.0% Lixivaptan): 143 ± 3 mEq/L | Plasma Urea (PCK rats; PCK rats F, 1.0% Lixivaptan): 37.7 ± 10.5 mg/dL | Total Kidney Weight (PCK rats; PCK rats F, 1.0% Lixivaptan): 4.14 ± 2.46 g | 24 hr urine week 7 (PCK rats; PCK rats M, 0.5% Lixivaptan): 45.5 ± 9.1 mL | 24 hr urine week 10 (PCK rats; PCK rats M, 0.5% Lixivaptan): 53.5 ± 14.3 mL | % Kidney/Body Weight (PCK rats; PCK rats M, 0.5% Lixivaptan): 1.37 ± 0.45% | % Liver/Body Weight (PCK rats; PCK rats M, 0.5% Lixivaptan): 5.49 ± 0.44% | Kidney Cyst Score (PCK rats; PCK rats M, 0.5% Lixivaptan): 7.7 ± 1.7 % | Kidney Fibrosis Score (PCK rats; PCK rats M, 0.5% Lixivaptan): 1.8 ± 1.2% | Liver Cyst Score (PCK rats; PCK rats M, 0.5% Lixivaptan): 3.2 ± 1.6% | Liver Fibrois Score (PCK rats; PCK rats M, 0.5% Lixivaptan): 3.1 ± 1.1% | Liver Weight (PCK rats; PCK rats M, 0.5% Lixivaptan): 23.8 ± 2.3 g | Plasma Creatinine (PCK rats; PCK rats M, 0.5% Lixivaptan): 0.63 ± 0.07 mg/dL | Plasma Sodium (PCK rats; PCK rats M, 0.5% Lixivaptan): 147 ± 4 mEq/L | Plasma Urea (PCK rats; PCK rats M, 0.5% Lixivaptan): 32.2 ± 5.8 mg/dL | Total Kidney Weight (PCK rats; PCK rats M, 0.5% Lixivaptan): 5.97 ± 2.04 g | 24 hr urine week 7 (PCK rats; PCK rats M, 1.0% Lixivaptan): 53.9 ± 7.4 mL | 24 hr urine week 10 (PCK rats; PCK rats M, 1.0% Lixivaptan): 63.7 ± 10.1 mL | % Kidney/Body Weight (PCK rats; PCK rats M, 1.0% Lixivaptan): 1.47 ± 0.46% | % Liver/Body Weight (PCK rats; PCK rats M, 1.0% Lixivaptan): 5.60 ± 0.61% | Kidney Cyst Score (PCK rats; PCK rats M, 1.0% Lixivaptan): 12.0 ± 3.7 % | Kidney Fibrosis Score (PCK rats; PCK rats M, 1.0% Lixivaptan): 2.9 ± 1.3% | Liver Cyst Score (PCK rats; PCK rats M, 1.0% Lixivaptan): 5.8 ± 1.3% | Liver Fibrois Score (PCK rats; PCK rats M, 1.0% Lixivaptan): 4.2 ± 2.0% | Liver Weight (PCK rats; PCK rats M, 1.0% Lixivaptan): 22.5 ± 2.7 g | Plasma Creatinine (PCK rats; PCK rats M, 1.0% Lixivaptan): 0.67 ± 0.04 mg/dL | Plasma Sodium (PCK rats; PCK rats M, 1.0% Lixivaptan): 147 ± 1 mEq/L | Plasma Urea (PCK rats; PCK rats M, 1.0% Lixivaptan): 32.3 ± 5.0 mg/dL | Total Kidney Weight (PCK rats; PCK rats M, 1.0% Lixivaptan): 5.92 ± 1.95 g | improvement in cystic phenotype compared to control (PCK rats; PCK rats, 0.5% lixivaptan): 54% | increase in serum sodium (PCK rats; PCK rats, 0.5% lixivaptan): 1.6% | reduction in kidney weight as a percentage of body weight (relative kidney size) (PCK rats; [2]): 26% | reduction in liver cyst score (PCK rats; [2]): 39% | reduction in liver fibrosis score (PCK rats; [3]): 20.6% | reduction in ratio of liver weight vs. body weight (PCK rats; [3]): 5.2% | beneficial effect on kidney fibrosis score (PCK rats; PCK rats, 0.5% lixivaptan, p=0.12): 30% | increase in 24 h urine output (PCK rats; PCK rats, 0.5% lixivaptan, study week 3 (rats at 7 weeks of age)): 175% | increase in 24 h urine output (PCK rats; PCK rats, 0.5% lixivaptan, study week 6 (rats at 10 weeks of age)): 189% | effect on liver pathology (PCK rats; PCK rats, 1.0% lixivaptan): did not separate from control | improvement in cystic phenotype compared to control (PCK rats; PCK rats, 1.0% lixivaptan): 25% | increase in urine output (PCK rats; PCK rats, 1.0% lixivaptan, Study week 3): 223% | increase in urine output (PCK rats; PCK rats, 1.0% lixivaptan, Study week 6): 237% | % kidney weight/body weight (PCK rats; PCK rats, 0.5% lixivaptan): 1.2% | % kidney weight/body weight (PCK rats; PCK rats, 1.0% lixivaptan, all animals): 1.6% | % kidney weight/body weight (PCK rats; PCK rats, 1.0% lixivaptan, three outliers removed): 1.3% | reduction in serum creatinine (PCK rats; PCK rats, compared to control): 13.2% | ALT elevations in treated individuals [1]: no ALT elevations | urinary osmolality suppressed to levels below target threshold (vasopressin V2 receptor): < 300 mOsm/kg
